According to publication PMC3298089 (Journal of Medicinal Chemistry, 2012):

Legend:
AKR1C2 = target: T1, AKR1C2 (Homo sapiens, UniProt P52895); test: Inhibition of NADP+ dependent oxidation of S-tetralol catalyzed by AKR1C2; assay type: biochemical; conditions: selectivity for AKR1C3; high value = high selectivity
T1 sequence (P52895 1-323): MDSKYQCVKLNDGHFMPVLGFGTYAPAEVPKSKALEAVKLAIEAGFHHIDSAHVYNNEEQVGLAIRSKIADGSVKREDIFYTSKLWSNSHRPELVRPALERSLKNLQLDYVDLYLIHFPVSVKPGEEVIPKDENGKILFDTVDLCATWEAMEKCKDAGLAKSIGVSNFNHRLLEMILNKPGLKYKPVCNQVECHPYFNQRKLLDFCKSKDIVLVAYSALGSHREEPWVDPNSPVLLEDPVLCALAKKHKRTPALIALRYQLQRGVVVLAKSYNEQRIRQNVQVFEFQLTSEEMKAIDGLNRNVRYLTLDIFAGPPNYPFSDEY

[1] = test system: AKR1C3 mediated production of testosterone in LNCaP-AKR1C3 cells; test: LNCaP-AKR1C3 mediated formation of testosterone from [14C]-Δ4-AD; assay type: cell-based, human; conditions: 10 μM inhibitor, 0.1 μM [14C]-Δ4-AD, 48 h, relative to control
AKR1C3 = target: T2, AKR1C3 (Homo sapiens, UniProt P42330); test: Inhibition of NADP+ dependent oxidation of S-tetralol catalyzed by AKR1C3; assay type: biochemical
T2 sequence (P42330 1-323): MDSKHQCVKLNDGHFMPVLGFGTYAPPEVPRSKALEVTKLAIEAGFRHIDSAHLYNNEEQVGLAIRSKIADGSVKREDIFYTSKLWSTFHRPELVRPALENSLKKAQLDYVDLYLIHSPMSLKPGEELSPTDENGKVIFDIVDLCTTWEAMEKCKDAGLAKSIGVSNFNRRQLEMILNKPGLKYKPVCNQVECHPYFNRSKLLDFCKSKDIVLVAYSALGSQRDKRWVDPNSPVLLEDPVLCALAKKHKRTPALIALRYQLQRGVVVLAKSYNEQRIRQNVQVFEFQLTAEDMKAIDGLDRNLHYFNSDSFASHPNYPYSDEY

SMILES | Ratio IC50 1C2:1C3 (AKR1C2) | IC50 (AKR1C3) [µM] | further results
O=C(O)c1cccc(Nc2cccc(C(=O)O)c2)c1 [Compound 4l] | >28.0 | – | –
CC(=O)c1ccc(Nc2cccc(C(=O)O)c2)c(C(=O)O)c1 [Compound 4w] | – | – | inhibition of testosterone production in LNCaP-AKR1C3 cells [1]: Almost identical results
O=C(O)c1cccc(Nc2ccc([N+](=O)[O-])cc2)c1 [Compound 4m] | – | 0.033 | –
CC(C)(C)c1ccc(Nc2ccccc2C(=O)O)cc1 [Compound 1o] | – | 0.038 | –

The next lines start with results.

Ratio IC50 1C2:1C3 (AKR1C2) | IC50 (AKR1C3) [µM] | SMILES | further results
>25 | – | O=C(O)c1ccc(Nc2ccc(Br)cc2)cc1 [Compound 5l] | –
>24 | – | O=C(O)c1ccc(Nc2cccc([N+](=O)[O-])c2)cc1 [Compound 5d, 4-((3-nitrophenyl)amino)benzoic acid] | –
